Measurements reported in patent publication US12298319B2, “Method for measuring alpha value of muscarinic M1 receptor positive allosteric modulators” (Takeda Pharmaceutical Company Limited, priority 2017, dated 2025).
Read-outs that look alike come from different tables or passages of the source.

Experiments:
human M1Rs = molecular target: T1, human M1Rs (Homo sapiens, UniProt P11229); assay: Ca2+ flux assay in CHO-K1 cells stably expressing human M1R (FLIPR), agonist and PAM mode, operational model fit; type: cell-based; conditions: for log β Mean: allosteric effect of PAM on signaling efficacy of ACh; for log β Mean / Log TB Mean: operational model; for EC50: mean of three independent experiments; for Log TB Mean: intrinsic agonistic efficacy
T1 sequence (P11229 1-460): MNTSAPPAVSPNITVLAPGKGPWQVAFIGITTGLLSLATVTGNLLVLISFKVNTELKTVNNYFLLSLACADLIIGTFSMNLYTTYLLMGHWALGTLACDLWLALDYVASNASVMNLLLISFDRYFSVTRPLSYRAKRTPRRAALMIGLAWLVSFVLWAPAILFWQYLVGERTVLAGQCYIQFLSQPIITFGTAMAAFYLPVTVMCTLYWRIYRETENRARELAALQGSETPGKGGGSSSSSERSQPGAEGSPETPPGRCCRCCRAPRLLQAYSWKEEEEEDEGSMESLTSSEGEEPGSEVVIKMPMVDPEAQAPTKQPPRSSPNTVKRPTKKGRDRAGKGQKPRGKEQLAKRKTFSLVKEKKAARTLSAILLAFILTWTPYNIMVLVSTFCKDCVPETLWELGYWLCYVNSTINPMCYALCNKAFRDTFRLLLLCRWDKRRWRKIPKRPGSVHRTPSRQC
Protocol: Chinese hamster ovary (CHO-K1) cells stably expressing human M1Rs (hM1R-CHO) were plated in black-walled clear-bottomed 384-well plates (5,000 cells/well) and cultured overnight at 37° C. in the presence of 5% CO2 in Ham's F-12 medium supplemented with 10% FBS and 100 U/mL penicillin-streptomycin. The following day, the medium was removed and incubated with assay buffer (Hank's balanced salt solution with 20 mM HEPES, 0.1% fatty acid free BSA) containing 2.5 μg/mL Fluo-4 AM and 1.25 mM probenecid for 30 min at 37° C. in the presence of 5% CO2. After 30 min incubation at room temperature, cells were stimulated with compounds. In this experiment, ACh and each PAM were added to the cells simultaneously. Calcium flux was measured using a fluorescence imaging plate reader (FLIPR) tetra system (Molecular Devices, Sunnyvale, CA).
[formula] the pharmacological effect and Emax denotes the maximum possible effect; [A] and [B] are the concentrations of ACh and PAM, respectively; KA and KB denote the equilibrium dissociation constants of ACh and PAM, respectively; τA and τB represent the operational measures of ACh and PAM efficacy, respectively; a is the binding cooperativity between ACh and PAM (activity to enhance ACh affinity to M1R); β is the magnitude of the allosteric effect of PAM on the signaling efficacy of ACh; n denotes the slope factor. For the analysis of functional data, the equilibrium dissociation constant of each PAM and the cooperativity between ACh and each PAM were fixed to those determined from the binding experiments.
EC50, eliciting 50% of the maximal response of an endogenous ligand, ACh, reflects the agonistic activity for M1R under conditions without ACh. […] Results of the in vitro functional parameters for M1R represent the mean and S.E.M. of three independent experiments. N/A stands for “not available”. PAM means positive allosteric modulator (Table 1).

M2R = molecular target: T2, M2R (Homo sapiens, UniProt P08172); assay: Ca2+ flux PAM activity against other muscarinic receptor subtypes, M2R; type: cell-based; conditions: in the presence of EC20 ACh; read-out: PAM activity against other muscarinic receptor subtypes M2R pIP
T2 sequence (P08172 1-466): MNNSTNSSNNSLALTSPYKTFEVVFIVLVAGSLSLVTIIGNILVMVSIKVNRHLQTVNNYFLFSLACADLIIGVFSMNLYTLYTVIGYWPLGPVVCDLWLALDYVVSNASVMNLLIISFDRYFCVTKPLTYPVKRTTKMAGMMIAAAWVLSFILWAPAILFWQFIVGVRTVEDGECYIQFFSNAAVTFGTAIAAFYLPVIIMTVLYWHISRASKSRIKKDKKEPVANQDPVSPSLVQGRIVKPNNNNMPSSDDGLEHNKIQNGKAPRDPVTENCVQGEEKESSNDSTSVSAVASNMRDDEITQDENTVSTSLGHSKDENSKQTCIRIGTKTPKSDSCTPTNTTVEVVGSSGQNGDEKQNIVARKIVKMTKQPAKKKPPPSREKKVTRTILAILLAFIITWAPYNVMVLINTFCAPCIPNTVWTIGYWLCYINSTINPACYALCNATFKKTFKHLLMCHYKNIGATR

M5R = molecular target: T3, M5R (Homo sapiens, UniProt P08912); assay: Ca2+ flux PAM activity against other muscarinic receptor subtypes, M5R; type: cell-based; conditions: in the presence of EC20 ACh; read-out: PAM activity against other muscarinic receptor subtypes M5R pIP
T3 sequence (P08912 1-532): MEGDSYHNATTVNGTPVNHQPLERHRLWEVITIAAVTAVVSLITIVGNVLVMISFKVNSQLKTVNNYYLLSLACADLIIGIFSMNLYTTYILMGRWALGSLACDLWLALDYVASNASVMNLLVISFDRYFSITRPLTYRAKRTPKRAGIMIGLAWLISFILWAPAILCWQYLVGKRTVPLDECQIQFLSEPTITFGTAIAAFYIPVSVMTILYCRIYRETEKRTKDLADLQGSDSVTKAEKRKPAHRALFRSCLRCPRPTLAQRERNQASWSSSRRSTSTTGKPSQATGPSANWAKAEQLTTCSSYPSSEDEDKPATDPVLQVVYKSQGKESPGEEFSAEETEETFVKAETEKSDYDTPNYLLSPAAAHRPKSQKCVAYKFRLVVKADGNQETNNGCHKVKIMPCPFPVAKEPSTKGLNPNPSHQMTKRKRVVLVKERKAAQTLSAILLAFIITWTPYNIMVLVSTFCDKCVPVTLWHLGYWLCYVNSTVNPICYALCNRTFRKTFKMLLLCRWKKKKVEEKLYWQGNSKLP

mice = assay: Assessment of diarrhea in mice; type: in vivo, mouse; conditions: for diarrhea induction: mice
Protocol: FIG. 1 depicts diarrhea induction by Compound C treatment in WT and M1R KO mice (hereinafter sometimes to be indicated as “MIKO mouse” in the present DESCRIPTION) (Example 11). […] The maximum score during the observation was adopted.
On the day of the experiment, mice were randomly divided into four groups (n=6-9). […] Each mouse was treated with either vehicle (10 or 20 mL/kg) or a single dose of each compound, including Compound A (3, 10 or 30 mg/kg p.o.), Compound B (10, 30, 100, 300 or 1,000 mg/kg p.o.) or Compound C (10 mg/kg p.o.). The animals were monitored, and scored the severity of diarrhea at 0.5, 1, 2, 4 and 6 h after administration. […] The highest score during the observation was adopted.

[1] = inflection point in the presence of EC20 ACh, read-out: M1PAM activity pIP Mean (converted)
[2] = without ACh, read-out: M1 agonist activity pEC50 Mean (converted)

| Compound | log β Mean (human M1Rs) | EC50 (human M1Rs; [1]) [µM] | Log TB Mean (human M1Rs) | EC50 (human M1Rs; [2]) [µM] | EC50 (M2R) [µM] | EC50 (M5R) [µM] | diarrhea induction (mice; 10 and 30 mg/kg p.o.) | diarrhea induction (mice; up to 1000 mg/kg p.o.) | diarrhea induction in M1R KO mice (mice; 10 mg/kg p.o., M1R KO mice) | diarrhea induction in WT mice (mice; 10 mg/kg p.o., WT mice) |
| --- | --- | --- | --- | --- | --- | --- | --- | --- | --- | --- |
| Cn1ccc(-c2ccc(CN3Cc4cccc(O[C@H]5CCCC[C@@H]5O)c4C3=O)cc2)n1 [Compound A, 7-(((1S,2S)-2-hydroxycyclohexyl)oxy)-2-(4-(1-methyl-1H-pyrazol-3-yl)benzyl)isoindolin-1-one] | 0.13 | 0.0102 | 2.06 | 0.0724 | > 10 | > 10 | caused severe diarrhea | – | – | – |
| Cn1cc(-c2ccc(CN3Cc4cccc(Oc5c(F)cccc5C#N)c4C3=O)cc2)cn1 [Compound B, 3-fluoro-2-((2-(4-(1-methyl-1H-pyrazol-4-yl)benzyl)-3-oxo-2,3-dihydro-1H-isoindol-4-yl)oxy)benzonitrile] | 0.58 | 0.0407 | −0.10 | 0.676 | > 10 | > 10 | – | did not induce severe diarrhea | – | – |
| Cn1cc(-c2ccc(Cc3cc4c(=O)n([C@H]5CCCC[C@@H]5O)cnc4c4ccccc34)cn2)cn1 [Compound C, 3-((1S,2S)-2-hydroxycyclohexyl)-6-((6-(1-methyl-1H-pyrazol-4-yl)pyridin-3-yl)methyl)benzo[h]quinazoline-4(3H)-one, reference compound] | −0.39 | 0.00209 | 1.49 | 0.00162 | > 10 | > 10 | – | – | not in M1R KO mice | induced diarrhea |
| O=c1c2cn(Cc3ccc(-n4cccn4)cc3)c3ccccc3c-2nn1-c1ccccc1F [Compound E, 2-(2-fluorophenyl)-5-(4-(1H-pyrazol-1-yl)benzyl)-2,5-dihydro-3H-pyrazolo[4,3-c]quinolin-3-one, reference compound] | −0.23 | 0.00851 | 0.65 | 0.219 | > 10 | > 10 | – | – | – | – |
| Cn1cc(-c2ccc(CN3Cc4cccc(OCCN5CCCCC5)c4C3=O)cc2)cn1 [Compound F, 2-(4-(1-methyl-1H-pyrazol-4-yl)benzyl)-7-(2-(piperidin-1-yl)ethoxy)isoindolin-1-one] | 0.87 | 0.0794 | 0.15 | 2.09 | > 10 | > 10 | – | – | – | – |
| Cn1cc(-c2ccc(CN3Cc4cccc(-c5ccn[nH]5)c4C3=O)cc2)cn1 [Compound G, 2-(4-(1-methyl-1H-pyrazol-4-yl)benzyl)-7-(1H-pyrazol-5-yl)isoindolin-1-one] | 0.85 | 0.275 | – | > 10 | > 10 | > 10 | – | – | – | – |
